{"source": "patent US20130236944A1", "about": "“METHODS FOR THE INACTIVATION OF ANTIBIOTICS” (priority 2011, published 2013)", "origin": "cited, not measured here", "details": "after 180 days; Hektoen et al. (1995)"}
{"smiles": "CCn1cc(C(=O)O)c(=O)c2cc3c(cc21)OCO3", "note": "[oxolanic acid]", "values": [{"measurement": "degradation in marine sediments", "value": "no degradation"}]}
{"smiles": "CN(C)[C@@H]1C(O)=C(C(N)=O)C(=O)[C@@]2(O)C(O)=C3C(=O)c4c(O)cccc4[C@@](C)(O)[C@H]3[C@H](O)[C@@H]12", "note": "[oxytetracycline]", "values": [{"measurement": "degradation in marine sediments", "value": "no degradation"}]}
